Data published in publication PMC8550792, “Evolution of kinase polypharmacology across HSP90 drug discovery” (Cell Chemical Biology, 2021).

Legend:
Assay in all cases: biochemical
Format in all cases: biochemical
382 unique human kinases [1] = biological target: T1, 382 unique human kinases (Homo sapiens, UniProt Q06418); settings: TYRO3/SKY, 10 uM; for remaining activity at 10 µM: read-out: % Enzyme Activity (relative to DMSO controls)
T1 construct: purchased Reaction Biology (HotSpot contract assay)
T1 sequence (Q06418 41-890): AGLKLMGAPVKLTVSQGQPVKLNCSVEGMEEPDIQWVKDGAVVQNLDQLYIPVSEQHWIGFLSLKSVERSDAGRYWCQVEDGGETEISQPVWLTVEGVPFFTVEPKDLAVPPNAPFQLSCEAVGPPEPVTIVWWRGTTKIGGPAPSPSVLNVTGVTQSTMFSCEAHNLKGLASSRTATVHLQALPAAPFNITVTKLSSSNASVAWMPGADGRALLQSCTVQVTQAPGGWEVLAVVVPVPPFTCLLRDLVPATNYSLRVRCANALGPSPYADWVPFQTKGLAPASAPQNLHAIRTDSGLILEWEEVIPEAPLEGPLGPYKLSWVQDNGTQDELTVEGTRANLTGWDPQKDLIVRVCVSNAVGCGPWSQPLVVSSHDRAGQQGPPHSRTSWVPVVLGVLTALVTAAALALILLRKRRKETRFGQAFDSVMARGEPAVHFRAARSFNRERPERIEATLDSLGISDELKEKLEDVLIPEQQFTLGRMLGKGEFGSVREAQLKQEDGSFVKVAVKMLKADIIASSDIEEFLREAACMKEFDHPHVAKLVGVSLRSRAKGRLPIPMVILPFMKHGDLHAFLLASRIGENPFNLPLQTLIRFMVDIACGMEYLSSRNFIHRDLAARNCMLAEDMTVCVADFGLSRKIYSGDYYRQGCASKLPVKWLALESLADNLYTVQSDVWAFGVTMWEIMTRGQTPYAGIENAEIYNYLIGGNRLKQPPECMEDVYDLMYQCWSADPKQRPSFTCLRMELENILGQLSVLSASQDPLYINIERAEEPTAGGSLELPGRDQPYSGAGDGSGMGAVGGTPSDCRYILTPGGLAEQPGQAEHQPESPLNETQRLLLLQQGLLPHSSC

382 unique human kinases [2] = biological target: T2, 382 unique human kinases (Homo sapiens, UniProt Q15746); settings: MLCK/MYLK, [ATP] 30 µM, compound 10 uM; for remaining activity at 10 µM: read-out: % Enzyme Activity (relative to DMSO controls)
T2 construct: purchased Reaction Biology (HotSpot contract assay)

382 unique human kinases [3] = biological target: T3, 382 unique human kinases (Homo sapiens, UniProt P54753); settings: EPHB3, 10 uM; for remaining activity at 10 µM: read-out: % Enzyme Activity (relative to DMSO controls)
T3 construct: purchased Reaction Biology (HotSpot contract assay)
T3 sequence (P54753 34-998): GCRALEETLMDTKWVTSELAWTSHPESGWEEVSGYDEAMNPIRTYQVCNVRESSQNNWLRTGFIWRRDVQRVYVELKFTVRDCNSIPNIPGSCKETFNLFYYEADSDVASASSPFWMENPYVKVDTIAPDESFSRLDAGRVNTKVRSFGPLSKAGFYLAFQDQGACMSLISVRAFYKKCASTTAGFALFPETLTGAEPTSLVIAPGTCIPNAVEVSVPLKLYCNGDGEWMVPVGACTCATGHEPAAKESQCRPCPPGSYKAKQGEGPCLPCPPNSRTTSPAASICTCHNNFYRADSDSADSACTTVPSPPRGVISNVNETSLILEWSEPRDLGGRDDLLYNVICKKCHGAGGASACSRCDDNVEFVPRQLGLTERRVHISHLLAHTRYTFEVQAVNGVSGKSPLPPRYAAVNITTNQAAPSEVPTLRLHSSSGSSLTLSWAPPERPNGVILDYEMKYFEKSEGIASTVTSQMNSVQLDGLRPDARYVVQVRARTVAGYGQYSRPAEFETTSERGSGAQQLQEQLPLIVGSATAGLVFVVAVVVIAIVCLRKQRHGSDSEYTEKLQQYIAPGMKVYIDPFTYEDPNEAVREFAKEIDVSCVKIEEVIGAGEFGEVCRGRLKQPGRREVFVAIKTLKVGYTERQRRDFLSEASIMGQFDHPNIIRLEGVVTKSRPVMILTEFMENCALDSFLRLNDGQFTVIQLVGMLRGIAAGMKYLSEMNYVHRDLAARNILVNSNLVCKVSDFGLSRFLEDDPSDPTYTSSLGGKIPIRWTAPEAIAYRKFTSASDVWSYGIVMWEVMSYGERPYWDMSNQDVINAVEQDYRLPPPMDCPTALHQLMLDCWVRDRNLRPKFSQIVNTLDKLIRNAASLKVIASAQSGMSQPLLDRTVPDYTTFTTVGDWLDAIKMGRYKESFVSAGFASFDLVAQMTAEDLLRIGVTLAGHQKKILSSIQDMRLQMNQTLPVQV

382 unique human kinases [4] = biological target: T4, 382 unique human kinases (Homo sapiens, UniProt Q8N752); settings: CK1a1L, 10 uM; for remaining activity at 10 µM: read-out: % Enzyme Activity (relative to DMSO controls)
T4 construct: purchased Reaction Biology (HotSpot contract assay)
T4 sequence (Q8N752 1-337): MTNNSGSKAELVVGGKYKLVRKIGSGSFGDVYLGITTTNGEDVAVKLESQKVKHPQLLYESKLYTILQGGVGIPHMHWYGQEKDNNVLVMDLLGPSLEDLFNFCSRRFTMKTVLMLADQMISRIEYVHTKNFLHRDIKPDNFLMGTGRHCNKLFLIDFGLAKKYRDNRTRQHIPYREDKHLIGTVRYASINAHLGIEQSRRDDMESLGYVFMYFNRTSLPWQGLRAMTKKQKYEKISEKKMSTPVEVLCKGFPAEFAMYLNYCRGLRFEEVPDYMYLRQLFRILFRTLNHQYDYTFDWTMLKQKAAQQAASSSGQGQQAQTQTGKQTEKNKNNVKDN

T2 sequence (Q15746 whole entry): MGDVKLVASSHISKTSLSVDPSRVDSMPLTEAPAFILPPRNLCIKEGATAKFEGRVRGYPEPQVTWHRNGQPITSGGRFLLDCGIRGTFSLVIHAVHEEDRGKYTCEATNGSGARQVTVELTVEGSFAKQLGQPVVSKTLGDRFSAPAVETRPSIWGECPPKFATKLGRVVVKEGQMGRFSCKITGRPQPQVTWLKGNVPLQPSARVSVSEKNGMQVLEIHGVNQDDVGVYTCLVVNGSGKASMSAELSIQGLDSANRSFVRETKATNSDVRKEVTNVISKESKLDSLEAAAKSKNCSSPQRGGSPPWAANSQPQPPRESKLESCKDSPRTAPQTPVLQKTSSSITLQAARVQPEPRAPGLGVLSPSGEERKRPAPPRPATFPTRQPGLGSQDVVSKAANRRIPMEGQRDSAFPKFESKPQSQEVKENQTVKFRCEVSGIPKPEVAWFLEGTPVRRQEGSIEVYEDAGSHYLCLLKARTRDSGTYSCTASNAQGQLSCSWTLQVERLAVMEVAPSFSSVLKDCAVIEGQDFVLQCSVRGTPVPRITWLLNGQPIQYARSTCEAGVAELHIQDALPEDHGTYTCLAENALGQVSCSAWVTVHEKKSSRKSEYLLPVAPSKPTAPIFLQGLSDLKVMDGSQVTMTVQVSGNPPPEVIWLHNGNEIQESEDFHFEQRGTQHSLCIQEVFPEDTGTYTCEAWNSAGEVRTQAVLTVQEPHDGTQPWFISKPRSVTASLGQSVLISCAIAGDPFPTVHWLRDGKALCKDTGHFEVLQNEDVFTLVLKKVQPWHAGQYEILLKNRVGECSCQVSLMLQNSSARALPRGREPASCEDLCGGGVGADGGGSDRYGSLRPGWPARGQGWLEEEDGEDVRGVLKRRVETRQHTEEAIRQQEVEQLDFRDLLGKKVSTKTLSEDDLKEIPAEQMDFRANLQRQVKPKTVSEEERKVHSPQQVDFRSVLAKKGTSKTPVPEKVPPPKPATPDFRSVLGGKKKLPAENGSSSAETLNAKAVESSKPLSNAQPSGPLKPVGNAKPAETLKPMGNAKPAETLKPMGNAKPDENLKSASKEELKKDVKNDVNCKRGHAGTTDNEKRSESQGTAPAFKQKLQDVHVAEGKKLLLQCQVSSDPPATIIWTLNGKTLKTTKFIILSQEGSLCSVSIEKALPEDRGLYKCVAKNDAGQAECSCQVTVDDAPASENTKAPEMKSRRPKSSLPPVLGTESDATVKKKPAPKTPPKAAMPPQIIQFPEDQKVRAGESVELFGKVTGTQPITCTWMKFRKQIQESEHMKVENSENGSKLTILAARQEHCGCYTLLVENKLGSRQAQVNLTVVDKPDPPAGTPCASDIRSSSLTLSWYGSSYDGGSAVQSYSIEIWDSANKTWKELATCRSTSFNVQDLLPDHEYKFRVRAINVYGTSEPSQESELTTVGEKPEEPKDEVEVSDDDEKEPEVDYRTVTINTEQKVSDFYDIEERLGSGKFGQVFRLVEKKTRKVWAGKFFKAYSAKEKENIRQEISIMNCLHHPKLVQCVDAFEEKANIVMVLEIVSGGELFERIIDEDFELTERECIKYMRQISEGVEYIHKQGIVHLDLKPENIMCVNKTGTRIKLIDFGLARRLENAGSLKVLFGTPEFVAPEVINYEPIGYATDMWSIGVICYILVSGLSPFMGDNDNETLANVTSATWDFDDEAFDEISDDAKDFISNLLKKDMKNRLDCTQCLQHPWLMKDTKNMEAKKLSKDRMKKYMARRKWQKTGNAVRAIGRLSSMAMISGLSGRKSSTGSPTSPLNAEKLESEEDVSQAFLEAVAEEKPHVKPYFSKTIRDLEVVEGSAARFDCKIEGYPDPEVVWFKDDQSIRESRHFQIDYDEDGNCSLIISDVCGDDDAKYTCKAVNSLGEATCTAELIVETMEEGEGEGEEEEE

| SMILES | % Enzyme Activity (relative to DMSO controls) (382 unique human kinases [1]) [%] | remaining activity at 10 µM (382 unique human kinases [1]) [%] | % Enzyme Activity (relative to DMSO controls) (382 unique human kinases [2]) [%] | remaining activity at 10 µM (382 unique human kinases [2]) [%] | % Enzyme Activity (relative to DMSO controls) (382 unique human kinases [3]) [%] | remaining activity at 10 µM (382 unique human kinases [3]) [%] | % Enzyme Activity (relative to DMSO controls) (382 unique human kinases [4]) [%] | remaining activity at 10 µM (382 unique human kinases [4]) [%] |
| --- | --- | --- | --- | --- | --- | --- | --- | --- |
| CCNC(=O)c1noc(-c2cc(C(C)C)c(O)cc2O)c1-c1ccc(CN2CCOCC2)cc1 [Luminespib] | 106.19 | 107 | 95.43 | 97.5 | 94.58 | 95.5 | 99.86 | 100 |
| CC(C)c1cc(-c2n[nH]c(=O)n2-c2ccc3c(ccn3C)c2)c(O)cc1O [Ganetespib] | – | 102 | – | 38.6 | – | 94.5 | – | 98.3 |
